Experimental data taken from patent US10219516B2, “Molecules having pesticidal utility, and intermediates, compositions, and processes, related thereto” (priority 2015, dated 2019).
Like-named read-outs stand apart in the source and are kept apart here.

Legend:
[1] = test system: Beet Armyworm (Spodoptera exigua, LAPHEG); test: Bioassay on Beet Armyworm (BAW), 128-well diet tray assay; assay type: in vivo
Method in brief: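 Diet tray, 8 wells/compound; 50 μg/cm^2 applied to diet surface (90:10 acetone-water), dried. 1–5 L2 larvae/well; 25° C., 14:10 L:D, 5–7 d. Read-out: % mortality, mean of 8 wells.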

[2] = test system: Cabbage Looper (Trichoplusia ni, TRIPNI); test: Bioassay on Cabbage Looper (CL), 128-well diet tray assay; assay type: in vivo; conditions: Trichoplusia ni
Method in brief: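 Second-instar larvae, one to five per well, were placed on artificial diet surface-treated with 50 μg/cm^2 test molecule applied in 90:10 acetone-water and dried, eight wells per molecule. Trays were covered, vented and held at 25° C., 14:10 light-dark for five to seven days; percent mortality per well was averaged.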

[3] = Beet Armyworm, 128-well diet tray assay, read-out: BAW rating
[4] = Cabbage Looper, 128-well diet tray assay, read-out: CL rating
[5] = Species BAW (Beet Armyworm), read-out: BAW (Biological Results, rating)
[6] = Species CL (Cabbage Looper), read-out: CL (Biological Results, rating)

Compound | pest or weed control at 50 µg/cm2 [1, 3] | pest or weed control at 50 µg/cm2 [2, 4] | pest or weed control at 50 µg/cm2 [1, 5] | pest or weed control at 50 µg/cm2 [2, 6]
COc1ccc([C@H]2[C@H](C(=O)Nc3ccc(Cl)c(C(=O)Nc4ccc(F)cc4)c3)C2(Cl)Cl)cc1 (relative stereo) [PF65, trans-2-Chloro-5-(2,2-dichloro-3-(4-methoxyphenyl)cyclopropane-1-carboxamido)-N-(4-fluorophenyl)benzamide] | 50 to 100% | 50 to 100% |  | 
CN(C(=O)c1cc(NC(=O)[C@H]2[C@H](c3cc(Cl)c(Cl)c(Cl)c3)C2(Cl)Cl)ccc1F)c1ccc(F)cc1 (relative stereo) [F60, trans-5-(2,2-dichloro-3-(3,4,5-trichlorophenyl)cyclopropane-1-carboxamido)-2-fluoro-N-(4-fluorophenyl)-N-methylbenzamide] |  |  | 50 to 100% | 50 to 100%
O=C(Nc1c(F)cccc1F)c1cc(NC(=O)[C@H]2[C@H](c3cc(F)cc(Cl)c3)C2(Cl)Cl)ccc1Cl (relative stereo) [F160, trans-2-Chloro-5-(2,2-dichloro-3-(3-chloro-5-fluorophenyl)cyclopropane-1-carboxamido)-N-(2,6-difluorophenyl)benzamide] |  |  | 50 to 100% | 50 to 100%
O=C(Nc1ccc(F)cc1)c1cc(NC(=O)[C@H]2[C@H](c3cc(Br)cc(Br)c3)C2(Cl)Cl)ccc1Cl (relative stereo) [F90, trans-2-Chloro-5-(2,2-dichloro-3-(3,5-dibromophenyl)cyclopropane-1-carboxamido)-N-(4-fluorophenyl)benzamide] |  |  | 50 to 100% | 50 to 100%
N#Cc1cc(F)ccc1NC(=O)c1cc(NC(=O)[C@H]2[C@H](c3ccc(F)c(Cl)c3)C2(Cl)Cl)ccc1Cl (relative stereo) [F192, trans-2-Chloro-N-(2-cyano-4-fluorophenyl)-5-(2,2-dichloro-3-(3-chloro-4-fluorophenyl)cyclopropane-1-carboxamido)benzamide] |  |  | 50 to 100% | 50 to 100%
O=C(Nc1ccc(Cl)c(C(=S)Nc2ccc(F)cc2)c1)[C@H]1[C@H](c2cc(Cl)cc(Cl)c2)C1(Cl)Cl (relative stereo) [F113, trans-2,2-Dichloro-N-(4-chloro-3-((4-fluorophenyl)carbamothioyl)phenyl)-3-(3,5-dichlorophenyl)cyclopropane-1-carboxamide] |  |  | 50 to 100% | 50 to 100%
CN(C(=O)c1cc(NC(=O)[C@H]2[C@H](c3cc(Cl)c(F)c(Cl)c3)C2(Cl)Cl)ccc1Cl)c1ccc(F)cc1 (relative stereo) [F97, trans-2-Chloro-5-(2,2-dichloro-3-(3,5-dichloro-4-fluorophenyl)cyclopropane-1-carboxamido)-N-(4-fluorophenyl)-N-methylbenzamide] |  |  | 50 to 100% | 50 to 100%
O=C(Nc1ccccc1F)c1cc(NC(=O)[C@H]2[C@H](c3cc(Cl)cc(Cl)c3)C2(Cl)Cl)ccc1Cl (relative stereo) [F17, trans-2-Chloro-5-(2,2-dichloro-3-(3,5-dichlorophenyl)cyclopropane-1-carboxamido)-N-(2-fluorophenyl)benzamide] |  |  | 50 to 100% | 50 to 100%
Nc1c(F)ccc(NC(=O)c2cc(NC(=O)C3C(c4ccc(F)c(C(F)(F)F)c4)C3(Cl)Cl)ccc2Cl)c1F (stereo not drawn) [F624, N-(3-Amino-2,4-difluorophenyl)-2-chloro-5-(2,2-dichloro-3-trans-(4-fluoro-3-(trifluoromethyl)phenyl)cyclopropane-1-carboxamido)benzamide] | 50 to 100% | 50 to 100% |  | 
CN(C(=O)c1cc(NC(=O)[C@H]2[C@H](c3cc(F)cc(Cl)c3)C2(Cl)Cl)ccc1Cl)c1ccc(F)cc1 (relative stereo) [PF2, trans-2-Chloro-5-(2,2-dichloro-3-(3-chloro-5-fluorophenyl)cyclopropane-1-carboxamido)-N-(4-fluorophenyl)-N-methylbenzamide] | 50 to 100% | 50 to 100% |  | 
